Assay [1] deals with T1, 5HT2B receptors (Homo sapiens, UniProt P41595).
T1 construct: expressed in transfected cells; host or cells: CHO-K1 cells
As to the kind of experiment: Human 5-HT2B functional high throughput screening assay in CHO-K1 cells (calcium flux). It is filed as cell-based. The settings on record: for EC50: CHO-K1 cells, calcium flux. Put shortly:
(§1)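 Serum-starved CHO-K1 cells carrying the receptor; Ca4 dye, 60 min RT. Test compound added after a 10 s baseline, fluorescence followed for 3 min. EC50 from 4-parameter fit; Emax given as % of serotonin effect.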
(In general: Calcium flux is commonly read through the fluorescence of an indicator in the cells.)

Assay [2] has as its target T2, 5HT2C receptors (Homo sapiens, UniProt P28335).
T2 sequence (P28335 33-458): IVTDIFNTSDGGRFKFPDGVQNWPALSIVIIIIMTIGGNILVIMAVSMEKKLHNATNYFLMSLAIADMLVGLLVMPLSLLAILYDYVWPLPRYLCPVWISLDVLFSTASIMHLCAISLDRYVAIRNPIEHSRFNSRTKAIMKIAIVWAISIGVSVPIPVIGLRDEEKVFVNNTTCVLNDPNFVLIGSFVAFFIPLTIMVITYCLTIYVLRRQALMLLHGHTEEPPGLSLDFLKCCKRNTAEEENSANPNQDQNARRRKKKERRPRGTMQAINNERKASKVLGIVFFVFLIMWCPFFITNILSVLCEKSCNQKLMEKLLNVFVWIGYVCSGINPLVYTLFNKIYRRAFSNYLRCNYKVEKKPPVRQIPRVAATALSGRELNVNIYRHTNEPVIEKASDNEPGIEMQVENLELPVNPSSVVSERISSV
The experiment in a line: Human 5-HT2C functional high throughput screening assay in CHO-K1 cells (calcium flux). The format is cell-based. As to conditions: for Emax: CHO-K1, 5-HT2C, maximum functional response as percentage relative to the effect of serotonin; for EC50: CHO-K1 cells, calcium flux; call rule not given here. Also on record: expressed in transfected cells; host or cells: CHO-K1 cells. In a few lines:
as §1

Where [3] appears, read: 5-HT2B agonist activity, read-out: EC50.
[4] abbreviates: 5-HT2B, maximum functional response as percentage relative to the effect of serotonin.
The mark [5] stands for this setting: 5-HT2C agonist activity, read-out: EC50.

Read-outs that look alike come from different tables or passages of the source.

The EC50 is the concentration giving half of the maximal effect. As usually defined, the Emax is the size of the effect at its maximum, as opposed to the concentration needed.

T1 sequence (P41595 whole entry): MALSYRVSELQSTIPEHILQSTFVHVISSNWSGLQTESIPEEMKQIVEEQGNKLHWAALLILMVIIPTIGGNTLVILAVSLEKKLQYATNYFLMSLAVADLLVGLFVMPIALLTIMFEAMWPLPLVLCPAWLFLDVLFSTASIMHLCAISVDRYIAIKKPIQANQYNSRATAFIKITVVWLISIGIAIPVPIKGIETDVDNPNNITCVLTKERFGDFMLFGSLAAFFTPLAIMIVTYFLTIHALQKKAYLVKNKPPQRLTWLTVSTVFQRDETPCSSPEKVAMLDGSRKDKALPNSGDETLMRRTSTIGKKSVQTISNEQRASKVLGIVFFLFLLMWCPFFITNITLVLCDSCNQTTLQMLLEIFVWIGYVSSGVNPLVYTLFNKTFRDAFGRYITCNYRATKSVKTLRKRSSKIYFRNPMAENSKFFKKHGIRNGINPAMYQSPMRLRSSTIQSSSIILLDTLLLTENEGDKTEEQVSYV

For `O=C1NC[C@@H]2CNC[C@H]2c2ccc(-c3ccc(F)cc3)cc21` (relative stereo) [Example 219, Trans-8-(4-fluorophenyl)-1,2,3,3a,4,5-hexahydrobenzo[e]pyrrolo[3,4-c]azepin-6(10bH)-one], the 50% effective concentration (EC50) in assay [1] (setting [3]) was > 10000 nM. Besides, the Emax entry in assay [1] (setting [4]) was “inactive”; in assay [2] (read-out: Emax), > 120%.

Regarding `O=C1C[C@@H]2CN(Cc3ccccc3)C[C@H]2c2ccccc2N1` (relative stereo) [Example 222, Trans-2-benzyl-1,2,3,3a,4,10b-hexahydrobenzo[b]pyrrolo[3,4-d]azepin-5(6H)-one], the results for the EC50 in assay [1] (setting [3]) and in assay [2] (setting [5]) were > 10000 nM and 400 nM, respectively. The maximal effect (Emax) result in assay [1] (setting [4]) is “inactive”; in assay [2] (read-out: Emax) it was > 120%.

With `O=C1Cc2ccccc2[C@@H]2CN(Cc3ccccc3)C[C@H]2N1` (relative stereo) [Example 223, Trans-2-benzyl-1,2,3,3a,4,10b-hexahydrobenzo[d]pyrrolo[3,4-b]azepin-5(6H)-one], the concentration giving a half-maximal response (EC50) in assay [1] (setting [3]) is > 10000 nM; in assay [2] (setting [5]), 5000 nM. Further, the maximal effect (Emax) entry was “inactive” in assay [1] (setting [4]) and 60% in assay [2] (read-out: Emax).

On to `CN1C[C@@H]2CNC[C@H]2c2ccc(F)cc2C1=O` (relative stereo) [Example 224, Trans-8-fluoro-5-methyl-1,2,3,3a,4,5-hexahydrobenzo[c]pyrrolo[3,4-e]azepin-6(10bH)-one], for which the figures for the Emax in assay [1] (CHO-K1) and in assay [2] were 45% and > 120%, respectively. In assay [1] (EC50, 5-HT2B agonist activity), the 50% effective concentration (EC50) was found to be 6000 nM.

Consider `CS(=O)(=O)c1cccc(-c2ccc3c(c2)C(=O)NC[C@@H]2CNC[C@@H]32)c1` (relative stereo) [Example 227, Trans-8-(3-(methylsulfonyl)phenyl)-1,2,3,3a,4,5-hexahydrobenzo[c]pyrrolo[3,4-e]azepin-6(10bH)-one], for which the EC50 in assay [1] (setting [3]) is > 10000 nM; in assay [2] (setting [5]), 0.8 nM. For the same compound, the Emax entry in assay [1] (setting [4]) is “inactive”; in assay [2] (read-out: Emax) it was > 120%.

For `CN(C)C(=O)c1cccc(-c2ccc3c(c2)C(=O)NC[C@@H]2CNC[C@@H]32)c1` (relative stereo) [Example 230, N,N-Dimethyl-3-(trans-6-oxo-1,2,3,3a,4,5,6,10b-octahydrobenzo[c]pyrrolo[3,4-e]azepin-8-yl)benzamide], the EC50 was > 10000 nM in assay [1] (setting [3]) and 80 nM in assay [2] (setting [5]). For the same compound, the values for the maximal effect (Emax) entry in assay [1] (setting [4]) and in assay [2] (read-out: Emax) were “inactive” and > 120%, respectively.

Turning to `CS(=O)(=O)c1ccccc1-c1ccc2c(c1)C(=O)NC[C@@H]1CNC[C@@H]21` (relative stereo) [Example 231, Trans-8-(2-(methylsulfonyl)phenyl)-1,2,3,3a,4,5-hexahydrobenzo[c]pyrrolo[3,4-e]azepin-6(10bH)-one], the EC50 in assay [1] (setting [3]) was > 10000 nM; in assay [2] (setting [5]), 900 nM. Also, the Emax entry in assay [1] (setting [4]) was “inactive”; in assay [2] (read-out: Emax) it was 105%.

As for `CN1C[C@H]2CNC(=O)c3cc(-c4ccccc4S(C)(=O)=O)ccc3[C@@H]2C1` (relative stereo) [Example 232, Trans-2-methyl-8-(2-(methylsulfonyl)phenyl)-1,2,3,3a,4,5-hexahydrobenzo[c]pyrrolo[3,4-e]azepin-6(10bH)-one], the EC50 was > 10000 nM in assay [1] (setting [3]) and 3000 nM in assay [2] (setting [5]). In addition, the maximal response (Emax) entry in assay [1] (setting [4]) was “inactive”; in assay [2] (read-out: Emax), 30%.

With `CC(=O)c1cccc(-c2ccc3c(c2)C(=O)NC[C@@H]2CNC[C@@H]32)c1.Cl` (relative stereo) [Example 236, Trans-8-(3-acetylphenyl)-1,2,3,3a,4,5-hexahydrobenzo[c]pyrrolo[3,4-e]azepin-6(10bH)-one hydrochloride], the EC50 is > 10000 nM in assay [1] (setting [3]) and 0.3 nM in assay [2] (setting [5]). Moreover, the Emax entry was “inactive” in assay [1] (setting [4]) and > 120% in assay [2].

As for `CC(=O)c1cccc(-c2ccc3c(c2)C(=O)NC[C@@H]2CN(C)C[C@@H]32)c1` (relative stereo) [Example 237, Trans-8-(3-acetylphenyl)-2-methyl-1,2,3,3a,4,5-hexahydrobenzo[c]pyrrolo[3,4-e]azepin-6(10bH)-one], the figures for the EC50 in assay [1] (setting [3]) and in assay [2] (setting [5]) were > 10000 nM and 3 nM, respectively. For the same compound, the figures for the maximal response (Emax) entry in assay [1] (setting [4]) and in assay [2] (read-out: Emax) were “inactive” and > 120%, respectively.

Turning to `CC(O)c1cccc(-c2ccc3c(c2)C(=O)NC[C@@H]2CN(C)C[C@@H]32)c1` (relative stereo) [Example 238, Trans-8-(3-(1-hydroxyethyl)phenyl)-2-methyl-1,2,3,3a,4,5-hexahydrobenzo[c]pyrrolo[3,4-e]azepin-6(10bH)-one], the EC50 in assay [1] (setting [3]) was > 10000 nM; in assay [2] (setting [5]), 0.7 nM. Further, the values for the Emax result in assay [1] (setting [4]) and in assay [2] (read-out: Emax) were “inactive” and > 120%, respectively.

Regarding `N#Cc1cccc(-c2ccc3c(c2)C(=O)NC[C@@H]2CNC[C@@H]32)c1` (relative stereo) [Example 239, 3-(Trans-6-oxo-1,2,3,3a,4,5,6,10b-octahydrobenzo[c]pyrrolo[3,4-e]azepin-8-yl)benzonitrile], the EC50 in assay [1] (setting [3]) came to 2000 nM; in assay [2] (setting [5]), 0.8 nM. Further, the Emax was 20% in assay [1] (CHO-K1, 5-HT2B, maximum functional response as percentage relative to the effect of serotonin, read-out: Emax) and > 120% in assay [2] (read-out: Emax).

In the case of `CN1C[C@H]2CNC(=O)c3cc(-c4cccc(C#N)c4)ccc3[C@@H]2C1` (relative stereo) [Example 240, 3-(Trans-2-methyl-6-oxo-1,2,3,3a,4,5,6,10b-octahydrobenzo[c]pyrrolo[3,4-e]azepin-8-yl)benzonitrile], the EC50 in assay [1] (setting [3]) is > 10000 nM; in assay [2] (setting [5]), 10 nM. For the same compound, the figures for the Emax result in assay [1] (setting [4]) and in assay [2] (read-out: Emax) were “inactive” and > 120%, respectively.

For the compound `O=C1NC[C@@H]2CNC[C@H]2c2ccc(C3=CCOCC3)cc21` (relative stereo) [Example 241, Trans-8-(3,6-dihydro-2H-pyran-4-yl)-1,2,3,3a,4,5-hexahydrobenzo[c]pyrrolo[3,4-e]azepin-6(10bH)-one], the figures for the half-maximal effective concentration (EC50) in assay [1] (setting [3]) and in assay [2] (setting [5]) were > 10000 nM and 7 nM, respectively. In addition, the Emax entry was “inactive” in assay [1] (setting [4]) and > 120% in assay [2] (read-out: Emax).

With `CN1C[C@H]2CNC(=O)c3cc(C4=CCOCC4)ccc3[C@@H]2C1` (relative stereo) [Example 242, Trans-8-(3,6-dihydro-2H-pyran-4-yl)-2-methyl-1,2,3,3a,4,5-hexahydrobenzo[c]pyrrolo[3,4-e]azepin-6(10bH)-one], the EC50 is > 10000 nM in assay [1] (setting [3]) and 200 nM in assay [2] (setting [5]). Further, the maximal response (Emax) entry in assay [1] (setting [4]) was “inactive”; in assay [2] (read-out: Emax), > 120%.

Take `CN1C[C@H]2CNC(=O)c3cc(Oc4ccc(F)cc4)ccc3[C@@H]2C1` (relative stereo) [Example 243, Trans-8-(4-fluorophenoxy)-2-methyl-1,2,3,3a,4,5-hexahydrobenzo[c]pyrrolo[3,4-e]azepin-6(10bH)-one]: the results for the EC50 in assay [1] (setting [3]) and in assay [2] (setting [5]) were > 10000 nM and 60 nM, respectively. Moreover, the maximum response (Emax) entry was “inactive” in assay [1] (setting [4]) and > 120% in assay [2] (read-out: Emax).

With `CC(C)Cc1ccc2c(c1)C(=O)NC[C@@H]1CN(C)C[C@@H]21` (relative stereo) [Example 244, Trans-8-isobutyl-2-methyl-1,2,3,3a,4,5-hexahydrobenzo[e]pyrrolo[3,4-c]azepin-6(10bH)-one], the Emax result was “inactive” in assay [1] (setting [4]) and 80% in assay [2]. The EC50 was > 10000 nM in assay [1] (EC50, 5-HT2B agonist activity) and 100 nM in assay [2] (EC50, 5-HT2C agonist activity).

For `CC1(C)CCC(Oc2ccc3c(c2)C(=O)NC[C@@H]2CNC[C@@H]32)CC1` (relative stereo) [Example 246, Trans-8-(4,4-dimethylcyclohexyloxy)-1,2,3,3a,4,5-hexahydrobenzo[e]pyrrolo[3,4-c]azepin-6(10bH)-one], the maximal effect (Emax) entry was “inactive” in assay [1] (setting [4]) and 100% in assay [2]. For the same compound, the concentration for a half-maximal effect (EC50) in assay [1] (EC50, 5-HT2B agonist activity) is > 10000 nM; in assay [2] (EC50, 5-HT2C agonist activity), 40 nM.

For `O=C1CCc2ccc(-c3ccc4c(c3)C(=O)NC[C@@H]3CNC[C@@H]43)cc21` (relative stereo) [Example 247, Trans-8-(3-oxo-2,3-dihydro-1H-inden-5-yl)-1,2,3,3a,4,5-hexahydrobenzo[c]pyrrolo[3,4-e]azepin-6(10bH)-one], the concentration giving a half-maximal response (EC50) was > 10000 nM in assay [1] (setting [3]) and 8 nM in assay [2] (setting [5]). Also, the maximum response (Emax) result in assay [1] (setting [4]) is “inactive”; in assay [2] (read-out: Emax), > 120%.

For the compound `CCS(=O)(=O)c1cccc(-c2ccc3c(c2)C(=O)NC[C@@H]2CNC[C@@H]32)c1` (relative stereo) [Example 250, Trans-8-(3-(ethylsulfonyl)phenyl)-1,2,3,3a,4,5-hexahydrobenzo[c]pyrrolo[3,4-e]azepin-6(10bH)-one], the results for the concentration for a half-maximal effect (EC50) in assay [1] (setting [3]) and in assay [2] (setting [5]) were > 10000 nM and 3 nM, respectively. Moreover, the Emax entry was “inactive” in assay [1] (setting [4]) and 105% in assay [2] (read-out: Emax).

The values above are taken from patent US8846951B2 (AbbVie Inc., priority 2009, dated 2014).
